Patent publication US20060252683A1, “Preparation of a peptide compound (SYRAPRO-2000) and its use for the activation of protein phosphatase-2A1 enzyme” (priority 2005, published 2006)

Molecular target: protein phosphatase-2A1 (Homo sapiens, UniProt P67775)
Test: Activation of protein phosphatase-2A1 in intact Jurkat cells (DEAE Sepharose fractions of extracts assayed)
Assay type: cell-based
Parameters: Protein phosphatase-2A1 purified from CD^4+ T cells as described in materials and method; endogenous in cells; host or cells: Jurkat cells; enzyme purified by DEAE Sepharose, Sephacryl S-300 HR and poly-L-lysine Agarose
Settings: Jurkat cells treated with 1000 nM for 1 hour, 0.001% DMSO
Protocol: Jurkat cells (a CD^4+ T cell line) were grown in RPMI 1640 and 10% (v/v) fetal bovine serum. 1600 ml of cell suspension (10^6 cells per ml) were split into two flasks and one was treated with SYRAPRO-2000 for 1 hour (circles) while the other was not (squares). The cells from each flask were collected by centrifugation, washed with 50 mM Imidazole-Cl pH 7.2 plus 150 mM NaCl and then homogenized in homogenization buffer as described in materials and methods. The homogenate from each flask was chromatographed on a DEAE Sepharose column and the eluted fractions were assayed for type 2A protein phosphatase activity as described in materials and method. Similar results were obtained in 3 independent experiments.
The effect of synthesized SYRAPRO-2000 on protein phosphatase-2A1 can be determined in intact cells. Jurkat cells, a human CD^4+ T transformed cell line. Jurkat cells are grown in RPMI 1680 medium supplemented with 5% (v/v) fetal bovine serum and antibiotics and treated or not with 1 μM of SYRAPRO-2000 for 60 minutes. Following treatment with SYRAPRO-2000, cells are harvested by centrifugation, washed and homogenized. A cell extract is prepared by centrifugation and loaded onto a DEAE Sepharose column which is washed and eluted with a liner gradient of buffer plus 0 mM NaCl to buffer plus 400 mM NaCl. […]

Chain of protein phosphatase-2A1 (P67775 whole entry): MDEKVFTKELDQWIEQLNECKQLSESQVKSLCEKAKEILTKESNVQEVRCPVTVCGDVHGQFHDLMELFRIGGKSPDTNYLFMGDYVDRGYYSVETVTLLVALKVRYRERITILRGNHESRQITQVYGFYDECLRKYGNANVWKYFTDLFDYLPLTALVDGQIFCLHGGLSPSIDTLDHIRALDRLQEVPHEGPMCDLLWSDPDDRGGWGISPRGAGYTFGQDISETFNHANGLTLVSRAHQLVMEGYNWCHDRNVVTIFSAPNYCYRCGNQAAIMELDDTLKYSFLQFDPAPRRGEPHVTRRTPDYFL
Chain of protein phosphatase-2A1 (P30153 whole entry partner): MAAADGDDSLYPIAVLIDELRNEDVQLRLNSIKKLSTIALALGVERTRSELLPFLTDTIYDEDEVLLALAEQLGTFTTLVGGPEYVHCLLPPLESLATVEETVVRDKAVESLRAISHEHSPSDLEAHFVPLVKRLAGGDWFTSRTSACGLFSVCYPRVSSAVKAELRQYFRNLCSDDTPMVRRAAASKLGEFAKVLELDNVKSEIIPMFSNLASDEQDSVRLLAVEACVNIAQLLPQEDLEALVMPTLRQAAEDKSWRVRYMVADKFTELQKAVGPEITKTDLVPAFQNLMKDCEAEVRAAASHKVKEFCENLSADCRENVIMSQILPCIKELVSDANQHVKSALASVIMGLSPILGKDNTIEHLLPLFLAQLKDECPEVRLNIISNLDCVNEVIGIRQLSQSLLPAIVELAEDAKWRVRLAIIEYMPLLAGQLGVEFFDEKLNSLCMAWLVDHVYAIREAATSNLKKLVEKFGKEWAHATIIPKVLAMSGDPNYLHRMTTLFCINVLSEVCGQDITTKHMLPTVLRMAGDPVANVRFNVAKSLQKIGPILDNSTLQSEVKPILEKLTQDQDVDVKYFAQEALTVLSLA
Chain of protein phosphatase-2A1 (P63151 whole entry partner): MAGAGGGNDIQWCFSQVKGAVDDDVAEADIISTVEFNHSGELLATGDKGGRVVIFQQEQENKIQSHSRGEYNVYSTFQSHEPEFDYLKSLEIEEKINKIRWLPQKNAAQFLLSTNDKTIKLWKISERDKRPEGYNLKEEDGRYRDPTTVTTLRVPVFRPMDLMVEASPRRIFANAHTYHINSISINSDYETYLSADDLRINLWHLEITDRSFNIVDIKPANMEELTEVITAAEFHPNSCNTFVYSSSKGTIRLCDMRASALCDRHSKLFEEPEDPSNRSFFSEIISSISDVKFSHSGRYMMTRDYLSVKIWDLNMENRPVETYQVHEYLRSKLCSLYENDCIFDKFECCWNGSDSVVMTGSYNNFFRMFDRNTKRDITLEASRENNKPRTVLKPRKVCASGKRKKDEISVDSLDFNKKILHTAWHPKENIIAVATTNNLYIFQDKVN

Compound: CC[C@H](C)[C@H](NC(=O)[C@H](CCCNC(=N)N)NC(=O)[C@H](CO)NC(=O)[C@H](Cc1c[nH]cn1)NC(=O)[C@H](CCCNC(=N)N)NC(=O)[C@H](CS)NC(=O)CNC(=O)[C@@H](NC(=O)[C@H](CCCNC(=N)N)NC(=O)[C@H](Cc1ccccc1)NC(=O)[C@@H](N)Cc1c[nH]cn1)[C@@H](C)CC)C(=O)NCC(=O)N[C@H](C(=O)N[C@H](C(=O)N[C@@H](CCCNC(=N)N)C(=O)N[C@@H](CCC(N)=O)C(=O)N[C@@H](CCCNC(=N)N)C(=O)N[C@@H](CCCNC(=N)N)C(=O)N[C@@H](C)C(=O)N[C@@H](CCCNC(=N)N)C(=O)N[C@@H](CC(N)=O)C(=O)NCC(=O)N[C@@H](C)C(=O)N[C@@H](CO)C(=O)N[C@@H](CCCNC(=N)N)C(=O)N[C@@H](CO)C(=O)O)[C@@H](C)O)C(C)C [SYRAPRO-2000]
- activity of protein phosphatase-2A1 in intact cells: became activated
